Among the data in patent US20220340598A1, “PYRAZOLOPYRIDINONE COMPOUNDS” (Janssen Pharmaceutica NV, priority 2017, published 2022) are IC50 and GI50 values, retold here.

In assay [1] the target is T1, human FGFR3 wild type enzyme (cytoplasmic domain) (Homo sapiens, UniProt P22607).
T1 construct: human FGFR3 wild type enzyme (cytoplasmic domain, from Carna Biosciences)
As to the kind of experiment: FGFR3 wild type mobility shift assay (enzymatic assay). Type of assay: biochemical. The note with it: 75 μM ATP, 50 minutes at 30° C., Caliper EZ reader II. The procedure:
FGFR3 Wild Type Mobility Shift Assay (Enzymatic Assay)
In a final reaction volume of 25 μL, 0.04 ng/μL human FGFR3 wild type enzyme (cytoplasmic domain, from Carna Biosciences) was incubated with 75 μM ATP, 1 μM FL-peptide 30 substrate and 250 nL of testing compound (1% DMSO final) in assay buffer (100 mM HEPES pH 7.4, 10 mM MgCl2, 0.003% Brij35, 1 mM DTT). After incubation for 50 minutes at 30° C. the reaction was stopped with 10 μL of 0.5M EDTA pH 8.0, and then 25 μL of reaction mixture was transferred to reading plate and measured on Caliper EZ reader II.

For assay [2], the target named is T2, NIH/3T3 cells overexpressing FGFR3 WT-TACC3 fusion protein (Homo sapiens, UniProt P22607).
T2 construct: fused on or other part: Q9Y6A5 (Transforming acidic coiled-coil-containing protein 3)
T2 sequence (P22607 whole entry, change not shown, the tested form may be a part): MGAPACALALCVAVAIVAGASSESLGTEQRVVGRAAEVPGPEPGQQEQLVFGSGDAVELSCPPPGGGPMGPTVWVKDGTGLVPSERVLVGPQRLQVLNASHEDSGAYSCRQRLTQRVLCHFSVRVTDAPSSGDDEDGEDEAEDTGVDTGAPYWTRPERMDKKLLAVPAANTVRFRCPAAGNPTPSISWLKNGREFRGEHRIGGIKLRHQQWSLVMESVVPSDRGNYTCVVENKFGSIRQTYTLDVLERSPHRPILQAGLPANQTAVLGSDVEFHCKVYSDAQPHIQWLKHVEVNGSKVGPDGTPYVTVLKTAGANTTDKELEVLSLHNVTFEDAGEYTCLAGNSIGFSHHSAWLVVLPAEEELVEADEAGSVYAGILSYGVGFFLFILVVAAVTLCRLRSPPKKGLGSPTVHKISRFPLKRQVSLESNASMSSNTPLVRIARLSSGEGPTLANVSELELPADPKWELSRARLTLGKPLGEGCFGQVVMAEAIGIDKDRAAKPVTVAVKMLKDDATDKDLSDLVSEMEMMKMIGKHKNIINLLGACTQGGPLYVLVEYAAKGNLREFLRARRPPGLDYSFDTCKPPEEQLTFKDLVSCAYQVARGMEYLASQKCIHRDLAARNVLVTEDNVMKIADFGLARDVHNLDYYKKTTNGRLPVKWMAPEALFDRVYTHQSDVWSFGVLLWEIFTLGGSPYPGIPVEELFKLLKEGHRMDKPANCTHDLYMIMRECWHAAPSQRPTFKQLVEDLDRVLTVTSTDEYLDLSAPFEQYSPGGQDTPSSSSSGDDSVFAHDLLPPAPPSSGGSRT
As to the kind of experiment: NIH/3T3 FGFR3 WT-TACC3 cell proliferation assay. The assay is classed as cell-based. The conditions noted are these: 72-hr incubation, CellTiter Glo; read-out: NIH/3T3 FGFR3 WT-TACC3 CTG (IC50). The procedure:
NIH/3T3 FGFR3 WT-TACC3 Cell Proliferation Assay
(§1) In day 1, 90 μL of cell suspension (NIH/3T3 cells overexpressing FGFR3 WT-TACC3 fusion protein) (total 30,000 cells per well in growth medium (DMEM containing 1% Glutamax, 10% FBS and 1% Pen/Strep)) was seeded in a 96-well plate and then incubated overnight at 37° C. and 5% CO2. In day 2, 10 μL of growth medium containing 10-fold stock solution of testing compound was added into cell cultures (9 dose points with 4× serial dilution, starting with 10 μM, 0.1% DMSO final). After 72-hr incubation at 37° C. and 5% CO2, in day 5 a volume of 50 μL CellTiter Glo (CTG) reagent was added into cell-containing 96-well plate and the plate was incubated at room temperature for 10 minutes before RLUs (relative light unit) were measured on a microplate reader with luminescence detection module. The RLU value was normalized to survival % and concentration-response curve was plotted using Prism to calculate IC50 (M), pIC50 (−log IC50) and HillSlope value.

In assay [3] the target is T3, human FGFR3 V555M enzyme (cytoplasmic domain carrying V555M mutation) (Homo sapiens, UniProt P22607, V555M).
T3 construct: human FGFR3 V555M enzyme (cytoplasmic domain carrying V555M mutation, from Carna Biosciences)
T3 sequence (P22607 397-806 V555M): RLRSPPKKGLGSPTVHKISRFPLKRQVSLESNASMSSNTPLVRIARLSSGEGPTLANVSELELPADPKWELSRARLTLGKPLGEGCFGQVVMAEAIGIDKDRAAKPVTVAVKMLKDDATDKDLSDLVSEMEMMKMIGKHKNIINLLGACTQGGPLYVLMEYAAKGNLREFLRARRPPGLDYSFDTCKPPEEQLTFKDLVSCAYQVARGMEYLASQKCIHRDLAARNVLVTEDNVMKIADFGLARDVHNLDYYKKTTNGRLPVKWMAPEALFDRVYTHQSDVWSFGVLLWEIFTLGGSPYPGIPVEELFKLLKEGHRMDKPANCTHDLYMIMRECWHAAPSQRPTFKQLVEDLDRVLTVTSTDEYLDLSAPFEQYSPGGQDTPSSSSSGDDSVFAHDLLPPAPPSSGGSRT
As to the kind of experiment: FGFR3 V555M mobility shift assay (enzymatic assay). Type of assay: biochemical. The conditions noted are these: 30 μM ATP, 45 minutes at 30° C., Caliper EZ reader II. The procedure:
FGFR3 V555M Mobility Shift Assay (Enzymatic Assay)
In a final reaction volume of 25 μL, 0.04 ng/μL human FGFR3 V555M enzyme (cytoplasmic domain carrying V555M mutation, from Carna Biosciences) was incubated with 30 μM ATP, 1 μM FL-peptide 30 substrate and 250 nL of testing compound (1% DMSO final) in assay buffer (100 mM HEPES pH 7.4, 10 mM MgCl2, 0.003% Brij35, 1 mM DTT). After incubation for 45 minutes at 30° C. the reaction was stopped with 10 μL of 0.5M EDTA pH 8.0, and then 25 μL of reaction mixture was transferred to reading plate and measured on Caliper EZ reader II.

The target of assay [4] is T4, NIH/3T3 cells overexpressing FGFR3 V555M-TACC3 fusion protein (Homo sapiens, UniProt P22607, V555M, cells depend on it).
T4 construct: fused on or other part: Q9Y6A5 (Transforming acidic coiled-coil-containing protein 3)
T4 sequence (P22607 whole entry V555M, the tested form may be a part): as the sequence (P22607 whole entry, change not shown, the tested form may be a part) above, with V555M counted along it
As to the kind of experiment: NIH/3T3 FGFR3 V555M-TACC3 cell proliferation assay. Type of assay: cell-based. The note with it: 72-hr incubation, CellTiter Glo; read-out: NIH/3T3 FGFR3 V555M-TACC3 CTG (IC50). How it is done:
NIH/3T3 FGFR3 V555M-TACC3 Cell Proliferation Assay
as §1, with “V555M-TACC3” for “WT-TACC3”

T1 sequence (P22607 397-806): as the sequence (P22607 397-806 V555M) above, with M159V counted along it

Take `CC(C)C(Nc1c(-c2nc3ccc(C(N)=O)cc3[nH]2)c(=O)[nH]c2cn(C)nc12)c1ncccn1` (single isomer, unassigned) [Compound 9, (S*)-2-(2-methyl-7-((2-methyl-1-(pyrimidin-2-yl)propyl)amino)-5-oxo-4,5-dihydro-2H-pyrazolo[4,3-b]pyridin-6-yl)-1H-benzo[d]imidazole-6-carboxamide]: the results for the concentration for half-maximal inhibition (IC50) in assay [1] and in assay [3] were 4.33 nM and 0.803 nM, respectively. In addition, the GI50 worked out at 202 nM in assay [2] and 200 nM in assay [4].
Consider `CC(C)C(Nc1c(-c2nc3ccc(C(=O)N(C)C)cc3[nH]2)c(=O)[nH]c2cn(C)nc12)c1ncccn1` (single isomer, unassigned) [Compound 10, (S*)—N,N-dimethyl-2-(2-methyl-7-((2-methyl-1-(pyrimidin-2-yl)propyl)amino)-5-oxo-4,5-dihydro-2H-pyrazolo[4,3-b]pyridin-6-yl)-1H-benzo[d]imidazole-6-carboxamide], for which the IC50 amounted to 2.57 nM in assay [1] and 0.673 nM in assay [3]. Besides, the GI50 in assay [2] is 54.2 nM; in assay [4], 31.9 nM.
The matching figures for `CC(C)C(Nc1c(-c2nc3cnc(N(C)C)cc3[nH]2)c(=O)[nH]c2cn(C)nc12)c1ncccn1` (single isomer, unassigned) [Compound 11, (S*)-6-(6-(dimethylamino)-1H-imidazo[4,5-c]pyridin-2-yl)-2-methyl-7-((2-methyl-1-(pyrimidin-2-yl)propyl)amino)-2H-pyrazolo[4,3-b]pyridin-5(4H)-one]: 6.77 nM, 1.05 nM, 67.1 nM and 50.7 nM.
On to `COc1ccc2nc(-c3c(N[C@H](c4ncccn4)C(C)C)c4nn(C)cc4[nH]c3=O)[nH]c2c1` (single isomer, unassigned) [Compound 15, (S*)-6(5-Methoxy-1H-benzo[d]imidazol-2-yl)-2-methyl-7-((2-methyl-1-(pyrimidin-2-yl)propyl)amino)-2H-pyrazolo[4,3-b]pyridin-5(4H)-one], for which the IC50 in assay [1] stood at 4.52 nM; in assay [3], 0.753 nM. The values for the GI50 in assay [2] and in assay [4] were 65 nM and 45.9 nM, respectively.
As for `CC(C)[C@H](Nc1c(-c2nc3cnccc3[nH]2)c(=O)[nH]c2cn(C)nc12)c1ncccn1` (single isomer, unassigned) [Compound 24, (S*)-6-(1H-imidazo[4,5-c]pyridin-2-yl)-2-methyl-7-((2-methyl-1-(pyrimidin-2-yl)propyl)amino)-2H-pyrazolo[4,3-b]pyridin-5(4H)-one], the values for the IC50 in assay [1] and in assay [3] were 13.5 nM and 2.5 nM, respectively. The values for the GI50 in assay [2] and in assay [4] were 166 nM and 117 nM, respectively.
The matching figures for `COCC(Nc1c(-c2nc3cc(OC)c(OC)cc3[nH]2)c(=O)[nH]c2cn(C)nc12)c1ncccn1` (single isomer, unassigned) [Compound 25, (S*)-6-(5,6-dimethoxy-1H-benzo[d]imidazol-2-yl)-7-((2-methoxy-1-(pyrimidin-2-yl)ethyl)amino)-2-methyl-2H-pyrazolo[4,3-b]pyridin-5(4H)-one]: 15.4 nM, 2.65 nM, 357 nM and 359 nM.
In the case of `COc1cc2nc(-c3c(NC(c4ncccn4)C(C)C)c4nn(C)cc4[nH]c3=O)[nH]c2cc1OC` (single isomer, unassigned) [Compound 27, (S*)-6-(5,6-dimethoxy-1H-benzo[d]imidazol-2-yl)-2-methyl-7-((2-methyl-1-(pyrimidin-2-yl)propyl)amino)-2H-pyrazolo[4,3-b]pyridin-5(4H)-one], the results for the IC50 in assay [1] and in assay [3] were 4.82 nM and 1.14 nM, respectively. For the same molecule, the GI50 in assay [2] came to 40.2 nM; in assay [4] it was 31.2 nM.
Regarding `CC[C@H](Nc1c(-c2nc3ccc(OCCOC)cc3[nH]2)c(=O)[nH]c2cn(C)nc12)c1ncccn1` (single isomer, unassigned) [Compound 48, (S*)-6(6-(2-methoxyethoxy)-1H-benzol-2-yl)-2-methyl-7-((1-(pyrimidin-2-yl)propyl)amino)-2H-pyrazolo[4,3-b]pyridin-5(4H)-one], the 50% inhibitory concentration (IC50) in assay [1] stood at 1.45 nM; in assay [3], 0.634 nM. Also, the GI50 in assay [2] worked out at 17.1 nM; in assay [4], 112 nM.
